Key:
Test in all cases: drug sensitivity score (DSS) from 5-point dose-response viability curve (DSS (area-under-curve based score)); higher = more sensitive (stronger growth inhibition or killing); extreme values may be limits of the assay
Details in all cases: exposure time: 72 h; concentration range: 5 concentrations over 10,000-fold range
Ovsaho = test system: Ovsaho
Summary of the method: (§1)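 Ovarian cancer and normal ovarian cell lines were tested in 384-well plates, with drugs dispensed acoustically (Echo 550) in DMSO or water at five concentrations covering a 10,000-fold range. After 1,500 cells per well were added, plates were incubated for 3 days at 37°C and 5% CO2, and viability was read by CellTiter-Glo luminescence on a PHERAstar FS. Breeze software gave a drug sensitivity score for each cell line and drug, where a higher score means greater sensitivity. A value of zero means no response.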

JHOS2 = test system: JHOS2
Summary of the method: as §1

Kuramochi = test system: Kuramochi
Summary of the method: as §1

CAOV3 = test system: CAOV3
Summary of the method: as §1

OV90 = test system: OV90
Summary of the method: as §1

OVCAR5 = test system: OVCAR5
Summary of the method: as §1

COV362 = test system: COV362
Summary of the method: as §1

HOSE1C = test system: HOSE1C
Summary of the method: as §1

HOSE2C = test system: HOSE2C
Summary of the method: as §1

OVCAR4 = test system: OVCAR4
Summary of the method: as §1

COV318 = test system: COV318
Summary of the method: as §1

OVCAR8 = test system: OVCAR8
Summary of the method: as §1

Structure (SMILES) | drug sensitivity score (Ovsaho) | drug sensitivity score (JHOS2) | drug sensitivity score (Kuramochi) | drug sensitivity score (CAOV3) | drug sensitivity score (OV90) | drug sensitivity score (OVCAR5) | drug sensitivity score (COV362) | drug sensitivity score (HOSE1C) | drug sensitivity score (HOSE2C) | drug sensitivity score (OVCAR4) | drug sensitivity score (COV318) | drug sensitivity score (OVCAR8)
CNCc1ccc(-c2[nH]c3cc(F)cc4c3c2CCNC4=O)cc1 [Rucaparib] | 0.4 | 0.7 | 0.3 | 0 | 1.7 | 1.2 | 0 | 0 | 0 | 0 | 0.5 | 1.8
N#CC[C@H](C1CCCC1)n1cc(-c2ncnc3[nH]ccc23)cn1 [Ruxolitinib] | 0 | 1 | 0 | 0 | 0.1 | 0 | 0 | 0 | 0 | 0 | 0 | 0.1
CC(C)N(CCCNC(=O)Nc1ccc(C(C)(C)C)cc1)C[C@H]1O[C@@H](n2cc(Br)c3c(N)ncnc32)[C@H](O)[C@@H]1O [SGC0946] | 0.1 | 0 | 0 | 0 | 2.3 | 1.7 | 3.4 | 0 | 0 | 0.1 | 0 | 0
COc1ccc(CCc2nc3cc(-c4c(C)noc4C)ccc3n2C[C@H](C)N2CCOCC2)cc1Cl [SGC-CBP30] | 6.6 | 1.7 | 6.6 | 3.7 | 3.4 | 2.9 | 0.2 | 11 | 6.1 | 2 | 3.1 | 5.7
CN1CCC(CNc2ccc3ncc(-c4cccc(OC(F)(F)F)c4)n3n2)CC1 [SGI-1776] | 7.7 | 5.2 | 5.1 | 5.1 | 5.6 | 6.9 | 4.3 | 8 | 7.2 | 3.3 | 4.7 | 6
CN(CC(=O)N(Cc1ccc(C2CCCCC2)cc1)c1ccc(C(=O)O)cc1)S(=O)(=O)c1c(F)c(F)c(F)c(F)c1F [SH-4-54] | 5.7 | 5.2 | 6.6 | 8.1 | 7.4 | 5.2 | 4.5 | 7.5 | 7.5 | 6.2 | 5.1 | 5.8
CCc1c2c(nc3ccc(O)cc13)-c1cc3c(c(=O)n1C2)COC(=O)[C@]3(O)CC [SN-38] | 21.2 | 25.2 | 14.6 | 37.9 | 24.6 | 24 | 16.8 | 37.3 | 36.4 | 14.4 | 13.8 | 28.6
CC(C)(C)c1cnc(CSc2cnc(NC(=O)C3CCNCC3)s2)o1 [SNS-032] | 18.9 | 23.3 | 15.8 | 16.2 | 16.1 | 18.5 | 13.9 | 21.2 | 12.1 | 13.9 | 11 | 20
Cc1cc2c(C(=O)NC[C@H](C)c3ccccc3)c(O)c(O)cc2c(O)c1-c1c(C)cc2c(C(=O)NC[C@H](C)c3ccccc3)c(O)c(O)cc2c1O [Sabutoclax] | 8.2 | 8.1 | 6.7 | 15.4 | 11.2 | 10.8 | 9 | 18 | 16.1 | 8.3 | 8.8 | 15.9
CC[C@@H](C(=O)[C@@H](C)[C@@H](O)[C@H](C)[C@@H]1O[C@@H]([C@@H](CC)C(=O)O)CC[C@@H]1C)[C@H]1O[C@]2(C=C[C@@H](O)[C@]3(CC[C@@](C)([C@H]4CC[C@](O)(CC)[C@H](C)O4)O3)O2)[C@H](C)C[C@@H]1C [Salinomycin] | 27.1 | 18.3 | 21 | 15.4 | 19.4 | 13.2 | 8.2 | 21.2 | 22.1 | 14.2 | 13.4 | 17.9
CC(C)n1nc(-c2ccc3oc(N)nc3c2)c2c(N)ncnc21 [Sapanisertib] | 14.6 | 7.4 | 8.9 | 8.4 | 15.2 | 12.4 | 3.2 | 13 | 10.9 | 10.7 | 8.2 | 9.8
CNC(=O)CN1CCC(Oc2cc3c(Nc4cccc(Cl)c4F)ncnc3cc2OC)CC1 [Sapitinib] | 0.7 | 0 | 0 | 6.8 | 0 | 1.7 | 0 | 0 | 0 | 0 | 0 | 0
CN1CCN(CCOc2cc(OC3CCOCC3)c3c(Nc4c(Cl)ccc5c4OCO5)ncnc3c2)CC1 [Saracatinib] | 7 | 3.1 | 9.7 | 8.2 | 5 | 9.2 | 5.6 | 2 | 5 | 3.8 | 0.4 | 5.1
CC1=C2C[C@H]3[C@@H](CC[C@@H]4C[C@H](NS(C)(=O)=O)CC[C@@]43C)[C@@H]2CC[C@@]2(C1)O[C@@H]1C[C@H](C)CN[C@H]1[C@H]2C [Saridegib] | 0 | 0 | 0 | 0.5 | 0 | 0 | 0 | 2.3 | 0.1 | 0 | 0 | 0.4
O=C(/C=C\n1cnc(-c2cc(C(F)(F)F)cc(C(F)(F)F)c2)n1)NNc1cnccn1 [Selinexor] | 16.5 | 13.9 | 8.1 | 18.7 | 8.2 | 15.3 | 7.9 | 29 | 9.3 | 10.7 | 8.2 | 17.4

Reference: the supplement of paper PMC11616607
